Measured values: patent US4386198A, “2-Hydroxyaclacinomycin A and 2-hydroxyaklavinone and process for preparing same” (priority 1979, dated 1983)
In brackets after ≈: the same amount, converted by molar mass.

Experiments:
[1] = cardiotoxicity compared with aclacinomycin A; details: comparing with aclacinomycin A
L 1210 cells [2] = test: in vitro activity: L 1210 growth inhibition; format: cell-based, murine; details: for IC50: Mus musculus, L1210, L 1210, RPMI 1640 with 20% calf serum, 37° C.
Procedure: (§1) In an example, L 1210 cells were inoculated in RPMI (Rosewell Park Memorial Institute) 1640 medium containing 20% calf serum at the cell density of 5×10^4 cells/ml, and the compound in the present invention was simultaneously added to the medium at the concentration of 0.1 and 0.5 μg/ml and incubated at 37° C. in a CO2 incubator. 50% growth inhibition concentration of the compound over controls was determined. L 1210 cells as described above were also inoculated at 5×10^5 cells in RPMI 1640 medium containing 10% calf serum and incubated at 37° C. for 1 to 2 hours in a CO2 incubator. The cells were cultured for 15 min. at 37° C. after the compound of the present invention was added at various concentrations, and then ^14 C-uridine (0.05 μCi/ml) or ^14 C-thymidine (0.05 μCi/ml) was added and incubated for 60 additional min. at 37° C. After stopping the pulse-labeling by addition of 10% trichloroacetic acid (TCA) solution to the reaction mixture, acid-insoluble materials were precipitated, washed three times with 5 to 10% TCA, and dissolved in a small amount of formic acid. Then, radioactivity was determined, and inhibitory effects on the RNA and DNA biosynthesis were indicated by the 50% inhibition concentration (IC50) of the incorporation of radioactivity over controls.

L 1210 cells [3] = test: growth and nucleic acid biosynthesis of murine leukemia L 1210 cells in culture; format: cell-based
Procedure: as §1

dd mice = test: Acute toxicity (LD50) in dd mice; format: in vivo; details: compared with daunomycin and adriamycin
[4] = Acute toxicity (LD50) in dd mice; format: in vivo; details: mouse, in vivo, ip; dd mice
[5] = test system: RNA biosynthesis in L 1210 cells; test: in vitro activity: RNA synthesis in L 1210 cells (14C-uridine incorporation); format: cell-based, murine; details: for IC50: Mus musculus, L1210, L 1210, 14C-uridine, 60 min pulse after 15 min with compound, 37° C.
Procedure: as §1

L 1210 leukemia = test: in vivo antitumor activity: L 1210 (prolongation of lifespan of CDF1 mice inoculated intraperitoneally with L 1210 cells); design: species or system mice (murine; CDF1); details: for T/C: once daily for 10 days, from 24 h after inoculation
Procedure: Antitumor effect against experimental animal tumor was examined as follows. CDF1 mice were inoculated with 1×10^5 cells of L 1210 cells intraperitoneally, and 2-hydroxyaclacinomycin A was administered intraperitoneally once daily for 10 days consecutively, 24 hours after inoculation. Prolongation of lifespan over controls (injected with only physiological saline instead of 2-hydroxyaclacinomycin A) is shown in Table 1. LD50 value in dd mice is also shown in Table 1 comparing with that of aclacinomycin A.

[6] = test system: DNA biosynthesis in L 1210 cells; test: in vitro activity: DNA synthesis in L 1210 cells (14C-thymidine incorporation); format: cell-based, murine; details: Mus musculus, L1210; L 1210, 14C-thymidine, 60 min pulse after 15 min with compound, 37° C.
Procedure: as §1

SMILES: CCC1(O)CC(OC2CC(N(C)C)C(OC3CC(O)C(OC4CCC(=O)C(C)O4)C(C)O3)C(C)O2)c2c(cc3c(c2O)C(=O)c2c(O)cc(O)cc2C3=O)C1C(=O)OC (centres unmarked) [2-Hydroxyaclacinomycin A, 2-hydroxyaclacinomycin A]
- cardiotoxicity, in words [1]: less cardiotoxicity
- IC50 (L 1210 cells [2]): 0.1 µg/mL (≈ 0.121 µM)
- suppression of growth, in words (L 1210 cells [2]; murine leukemic cells, low concentration): suppressed the growth of murine leukemic cells at low concentration
- inhibition of growth and nucleic acid biosynthesis, in words (L 1210 cells [3]): inhibited markedly the growth and nucleic acid biosynthesis
- acute toxicity, in words (dd mice): much more less than those of known anthracycline antibiotics such as daunomycin and adriamycin
- LD50 [4]: 50 mg/kg
- IC50 [5]: 0.1 µg/mL (≈ 0.121 µM)
- inhibition of RNA synthesis, in words ([5]; mode of action compared to aclacinomycin and rhodomycin-group): specifically inhibited RNA synthesis
- T/C (L 1210 leukemia; 0.5 mg/kg/day i.p.): 145%
- T/C (L 1210 leukemia; 1 mg/kg/day i.p.): 153%
- T/C (L 1210 leukemia; 2 mg/kg/day i.p.): 176%
- T/C (L 1210 leukemia; 4 mg/kg/day i.p.): 201%
- T/C (L 1210 leukemia; 6 mg/kg/day i.p.): 218%
- T/C (L 1210 leukemia; 8 mg/kg/day i.p.): 194%
- T/C (L 1210 leukemia; 12 mg/kg/day i.p.): 127%
- prolongation of lifespan, in words (L 1210 leukemia; L 1210-bearing mice): marked prolongation of lifespan
- antitumor activity, in words (L 1210 leukemia; comparing with aclacinomycin A): more potent antitumor activity
- effective dose range relative to aclacinomycin A (L 1210 leukemia; relative to aclacinomycin A): twice
- IC50 [6]: 0.95 µg/mL (≈ 1.15 µM)

SMILES: CC[C@@]1(O)C[C@H](O[C@H]2C[C@H](N(C)C)[C@H](O[C@H]3C[C@H](O)[C@H](O[C@H]4CCC(=O)[C@H](C)O4)[C@H](C)O3)[C@H](C)O2)c2c(cc3c(c2O)C(=O)c2c(O)cccc2C3=O)[C@H]1C(=O)OC [Aclacinomycin A]
- IC50 (L 1210 cells [2]): 0.12 µg/mL (≈ 0.148 µM)
- LD50 [4]: 22.6 mg/kg
- IC50 [5]: 0.1 µg/mL (≈ 0.123 µM)
- T/C (L 1210 leukemia; 0.5 mg/kg/day i.p.): 130%
- T/C (L 1210 leukemia; 1 mg/kg/day i.p.): 146%
- T/C (L 1210 leukemia; 2 mg/kg/day i.p.): 165%
- T/C (L 1210 leukemia; 4 mg/kg/day i.p.): 205%
- T/C (L 1210 leukemia; 6 mg/kg/day i.p.): 105%
- toxicity in words at 8 mg/kg/day (in T/C column) (L 1210 leukemia; 8 mg/kg/day i.p., L 1210-bearing CDF1 mice): Toxic
- IC50 [6]: 1.1 µg/mL (≈ 1.35 µM)
